Experimental data: ChEMBL document CHEMBL3046925, “,-Dibromoacetophenones mediated synthesis of some new 7H-7-alkoxy-3-alkyl/phenyl-6-aryl-s-triazolo[3,4-b][1,3,4]thiadiazines and their antimicrobial evaluation” (2012)
In brackets after ≈: the same amount, converted by molar mass. Activity calls are given as the source filed them. The rule behind the calls is not given here.

Tests used:
Staphylococcus aureus [1] = details: MTCC 96
Description: Antimicrobial activity against Staphylococcus aureus MTCC 96 after 24 hr by two-fold serial dilution method

Saccharomyces cerevisiae [2] = assay: Antimicrobial activity against Saccharomyces cerevisiae MTCC 170 after 24 hr by two-fold serial dilution method; assay type: functional; details: MTCC 170, 24 h
Bacillus subtilis [3] = details: MTCC 121
Description: Antimicrobial activity against Bacillus subtilis MTCC 121 at 2 mg/ml after 24 hr by agar well diffusion method

Candida albicans [4] = assay: Antimicrobial activity against Candida albicans MTCC 227 at 2 mg/ml by two-fold serial dilution method; assay type: functional
Escherichia coli = assay: Antimicrobial activity against Escherichia coli MTCC 1652 at 2 mg/ml after 24 hr by agar well diffusion method; assay type: functional, organism-based
Saccharomyces cerevisiae [5] = assay: Antimicrobial activity against Saccharomyces cerevisiae MTCC 170 at 2 mg/ml after 24 hr by agar well diffusion method; assay type: functional; details: MTCC 170, 24 h, read-out: DIZ
Staphylococcus aureus [6] = details: MTCC 96; remark: listed apart in the source
Description: Antimicrobial activity against Staphylococcus aureus MTCC 96 at 2 mg/ml after 24 hr by agar well diffusion method

Candida albicans [7] = assay: Antimicrobial activity against Candida albicans MTCC 227 at 2 mg/ml by agar well diffusion method; assay type: functional; details: read-out: DIZ
Pseudomonas aeruginosa = assay: Antimicrobial activity against Pseudomonas aeruginosa MTCC 741 at 2 mg/ml after 24 hr by agar well diffusion method; assay type: functional, organism-based
Bacillus subtilis [8] = details: MTCC 121; remark: listed apart in the source
Description: Antimicrobial activity against Bacillus subtilis MTCC 121 at 2 mg/ml after 24 hr by two-fold serial dilution method

- MIC (Staphylococcus aureus [1]): inactive
- MIC (Saccharomyces cerevisiae [2]): 64 µg/mL (≈ 192 µM)
- MIC (Candida albicans [4]): 128 µg/mL (≈ 384 µM)
- MIC (Bacillus subtilis [8]): inactive
SMILES: CCOC1Sc2nnc(CC)n2N=C1c1ccc([N+](=O)[O-])cc1 (stereo not given)
- DIZ (Bacillus subtilis [3]): inactive
- Activity (Escherichia coli): inactive
- zone of inhibition at 2000 µg/mL (Saccharomyces cerevisiae [5]): 15.6 mm
- DIZ (Staphylococcus aureus [6]): inactive
- zone of inhibition at 2000 µg/mL (Candida albicans [7]): 13.3 mm
- Activity (Pseudomonas aeruginosa): inactive
